Experimental data as given in PMC3849035 (MedChemComm, 2011).
pEC50: −log10 of the molar value.

Tests used:
[1] = tested on: VZV (OKA & 07/1); test: VZV plaque formation assay in HEL cells; assay type: cell-based, varicella-zoster virus; settings: Human alphaherpesvirus 3, HEL, 120 h
[2] = tested on: HEL cells; settings: microscopically visible alteration of cell morphology
[3] = tested on: several tumor cell lines; test: Cytotoxic activity against tumor cell lines; assay type: cell-based
[4] = tested on: MDCK cells; settings: microscopically visible alteration of cell morphology
[5] = tested on: Parainfluenza-3 virus; test: Inhibition of virus-induced cytopathicity, parainfluenza-3 virus in Vero cells; assay type: cell-based
[6] = tested on: Vero cells; settings: microscopically visible alteration of cell morphology
[7] = tested on: HCMV and VZV; test: organism not typed; assay type: cell-based; settings: read-out: EC50's against HCMV and VZV
[8] = tested on: HeLa cells; settings: microscopically visible alteration of cell morphology
[9] = tested on: Reovirus-1; test: Inhibition of virus-induced cytopathicity, Reovirus-1 in Vero cells; assay type: cell-based
[10] = tested on: HEL, HeLa, Vero, MDCK; settings: four different cell lines (HEL, HeLa, Vero, MDCK)
[11] = tested on: VSV; test: microbe, parasite or virus in culture; assay type: cell-based; settings: Vesicular stomatitis virus, HeLa
[12] = tested on: RSV; test: Inhibition of virus-induced cytopathicity, RSV in HeLa cells; assay type: cell-based; settings: human respiratory syncytial virus

Row | Compound | pEC50 [1] | MCC (minimal cytotoxic concentration) [2] [µM] | cytotoxic activity against several tumor cell lines [3] | MCC (minimal cytotoxic concentration) [4] [µM] | pEC50 [5] | MCC (minimal cytotoxic concentration) [6] [µM] | pEC50 [7] | MCC (minimal cytotoxic concentration) [8] [µM] | pEC50 [9] | global cytotoxicity [10] [µM] | pEC50 [11] | pEC50 [12]
1 | O=c1[nH]c(=O)n(C2C=CC(O)C2)cc1-c1cccs1 (stereo not shown) [1a, 1-[4′-Hydroxy-2′-cyclopenten-1′-yl]-5-(thiophene-2-yl)-uracil] | 5.77 to 5.80 | ≥4 | significant cytotoxic activity | 4 | < 5.40 | 20 | 5.70 to 5.80 | 20 | < 5.40 | 4 to 20 | – | –
2 | O=c1[nH]c(=O)n(C2C=CC(O)C2)cc1-c1ccco1 (stereo not shown) [1b, 1-[4′-Hydroxy-2′-cyclopenten-1′-yl]-5-(furan-2-yl)-uracil] | – | >100 | – | – | < 4.00 | >100 | – | >100 | – | – | – | –
3 | O=c1[nH]c(=O)n(C2C=CC(O)C2)cc1-c1cncs1 (stereo not shown) [1c, 1-[4′-Hydroxy-2′-cyclopenten-1′-yl]-5-(thiazol-5-yl)-uracil] | 4.25 to 4.33 | ≥100 | – | 100 | < 4.00 | >100 | – | >100 | < 4.00 | – | – | –
4 | NC(=O)c1ncn([C@@H]2O[C@H](CO)[C@@H](O)[C@H]2O)n1 [Ribavirin, reference compound] | – | – | – | – | 4.07 | – | – | – | < 3.60 | – | 4.54 | 5.00
